The series in a line: Solubility study of Form A in buffers, water and biorelevant media (suspension shaken 24 hours at 25° C., filtrate by UPLC). In kind it is physicochemical. The settings on record: for solubility at 24 h: thermodynamic from solid. The method, then:
• pH 1.00 buffer • pH 3.00 buffer • pH 5.00 buffer • pH 7.00 buffer • pH 9.00 buffer • Water • SGF without Triton • FaSSIF • FeSSIF b. Testing Procedure
Weigh about 5 mg of compound (I) into glass vial and add 0.5 ml testing medium listed above to form suspension. Shake these suspensions at 1200 rpm for about 24 hours under 25° C.
At the end of 24 hours, pull out all the vials and filter the suspensions by 0.22 μm PVDF filters. Check the pH value and concentration of filtrate by pH meter and UPLC respectively.
The result indicates the solubility is pH dependent.

Values after ≈ are worked out from the molar mass of the structure shown. Values joined by “and” are separate entries in the source; they are usually repeats but may differ in a detail not shown here. Equal values may be shown once.

The solubility is how much of the substance goes into solution per volume. Read a low solubility as little dissolved substance. One may read the Solubility as how much of the substance goes into solution per volume.

For `Cc1cc(N2CC3CCC(C2)C3Nc2nc3n(n2)CCCC[C@H]3c2ccc(F)c(F)c2F)ncn1` (stereo partly drawn) [Form A, (9S)-N-[3-(6-methylpyrimidin-4-yl)-3-azabicyclo[3.2.1]octan-8-yl]-9-(2,3,4-trifluorophenyl)-6,7,8,9-tetrahydro-5H-[1,2,4]triazolo[1,5-a]azepin-2-amine], the solubility at 24 h is 34 µg/mL (≈ 70.3 µM) (FaSSIF, 25 °C, about 24 hours, individual replicate); 33 µg/mL (≈ 68.2 µM) (FaSSIF, 25 °C, about 24 hours, mean ± spread of three replicates); 614 µg/mL (≈ 1270 µM) (FeSSIF, 25 °C, about 24 hours, individual replicate); 618 ± 7 µg/mL (≈ 1280 µM) (FeSSIF, 25 °C, about 24 hours, mean ± spread of three replicates); > 10000 µg/mL (SGF without Triton-X100, 25 °C, simulated gastric fluid, SGF without Triton-X100, about 24 hours, individual replicate); > 10000 µg/mL (SGF without Triton-X100, 25 °C, simulated gastric fluid, SGF without Triton-X100, about 24 hours, mean of three replicates). Besides, the solubility at 24 h is > 10000 µg/mL (pH 1.0 buffer, 25 °C, pH 1, aqueous buffer, about 24 hours, individual replicate); > 10000 µg/mL (pH 1.0 buffer, 25 °C, pH 1, aqueous buffer, about 24 hours, mean of three replicates); 5480 µg/mL (≈ 11300 µM) (pH 3.0 buffer, 25 °C, pH 3, aqueous buffer, about 24 hours, individual replicate); 5347 ± 47 µg/mL (≈ 11100 µM) (pH 3.0 buffer, 25 °C, pH 3, aqueous buffer, about 24 hours, mean ± spread of three replicates); 91 µg/mL (≈ 188 µM) (pH 5.0 buffer, 25 °C, pH 5, aqueous buffer, about 24 hours, individual replicate); 101 ± 9 µg/mL (≈ 209 µM) (pH 5.0 buffer, 25 °C, pH 5, aqueous buffer, about 24 hours, mean ± spread of three replicates). Further, the solubility at 24 h was found to be 7 µg/mL (≈ 14.5 µM) (pH 7.0 buffer, 25 °C, pH 7, aqueous buffer, about 24 hours, individual replicate); 6 µg/mL (≈ 12.4 µM) (pH 7.0 buffer, 25 °C, pH 7, aqueous buffer, about 24 hours, mean ± spread of three replicates); 6 µg/mL (≈ 12.4 µM) (pH 9.0 buffer, 25 °C, pH 9, aqueous buffer, about 24 hours, individual replicate); 6 µg/mL (≈ 12.4 µM) (pH 9.0 buffer, 25 °C, pH 9, aqueous buffer, about 24 hours, mean ± spread of three replicates); 7 µg/mL (≈ 14.5 µM) (water, 25 °C, about 24 hours, individual replicate); 6 µg/mL (≈ 12.4 µM) (water, 25 °C, about 24 hours, mean ± spread of three replicates). Moreover, the Solubility is 33 µg/mL (≈ 68.2 µM) (FaSSIF, about 24 hours, individual replicate); 611 µg/mL and 628 µg/mL (FeSSIF, about 24 hours, individual replicate); 6 µg/mL (≈ 12.4 µM) (Water, about 24 hours, individual replicate); 5366 µg/mL and 5468 µg/mL (pH 3.0 buffer, about 24 hours, individual replicate); 97 µg/mL and 114 µg/mL (pH 5.0 buffer, about 24 hours, individual replicate); 6 µg/mL (≈ 12.4 µM) (pH 7.0 buffer, about 24 hours, individual replicate).

(Values after patent US12679840B2, “Process for the preparation of (9S)-N-[3-(6-methylpyrimidin-4-yl)-3-azabicyclo[3.2.1]octan-8-yl]-9-(2,3,4-trifluorophenyl)-6,7,8,9-tetrahydro-5H-[1,2,4]triazolo[1,5-a]azepin-2-amine and its solid form” (Hoffmann-La Roche Inc., priority 2020, dated 2026).)
